# Assay results as given in paper PMC11203266, “Continuous evolution of compact protein degradation tags regulated by selective molecular glues” (Science (New York, N.Y.), 2024).
# Entries after “also recorded” stand apart in the source; their conditions may differ.
# Key:
# HEK293T cells = assay: Global quantitative proteomics, HEK293T; format: cell-based, human; settings: 1 µM; for proteins downregulated (in words): 5 hours
# Procedure: (§1) Cells were lysed by addition of lysis buffer (8 M Urea, 50 mM NaCl, 50 mM 4-(2-hydroxyethyl)-1-piperazineethanesulfonic acid (EPPS) pH 8.5, Protease and Phosphatase inhibitors) and homogenization by bead beating (BioSpec) for three repeats of 30 seconds at 2400. Bradford assay was used to determine the final protein concentration in the clarified cell lysate. 50 μg of protein for each sample was reduced, alkylated and precipitated using methanol/chloroform as previously described ([32]) and the resulting washed precipitated protein was allowed to air dry. Precipitated protein was resuspended in 4 M Urea, 50 mM HEPES pH 7.4, followed by dilution to <1 M urea with the addition of 200 mM EPPS, pH 8. Proteins were digested with LysC (1:50; enzyme:protein) and trypsin (1:50; enzyme:protein) overnight at 37 °C. Sample digests were acidified with formic acid to a pH of 2-3 prior to desalting using C18 solid phase extraction plates (SOLA, Thermo Fisher Scientific). Desalted peptides were dried in a vacuum centrifuge and reconstituted in 0.1% formic acid for LC-MS analysis.
# (§2) Data were collected using a TimsTOF Pro2 (Bruker Daltonics, Bremen, Germany) coupled to a nanoElute LC pump (Bruker Daltonics, Bremen, Germany) via a CaptiveSpray nano-electrospray source. Peptides were separated on a reversed-phase C18 column (25 cm x 75 μm ID, […], IonOpticks, Australia) containing an integrated captive spray emitter. Peptides were separated using a 50 min gradient of 2 – 30% buffer B (acetonitrile in 0.1% formic acid) with a flow rate of 250 nL/min and column temperature maintained at 50 °C.
# (§3) DDA was performed in Parallel Accumulation-Serial Fragmentation (PASEF) mode to determine effective ion mobility windows for downstream diaPASEF data collection (Meier et al., 2020). The ddaPASEF parameters included: 100% duty cycle using accumulation and ramp times of 50 ms each, 1 TIMS-MS scan and 10 PASEF ramps per acquisition cycle. The TIMS-MS survey scan was acquired between 100–1700 m/z and 1/k0 of 0.7–1.3 V.s/cm^2. Precursors with 1–5 charges were selected and those that reached an intensity threshold of 20,000 arbitrary units were actively excluded for 0.4 min. The quadrupole isolation width was set to 2 m/z for m/z <700 and 3 m/z for m/z >800, with the m/z between 700–800 m/z being interpolated linearly. The TIMS elution voltages were calibrated linearly with three points (Agilent ESI-L Tuning Mix Ions; 622, 922, 1,222 m/z) to determine the reduced ion mobility coefficients (1/K0). To perform diaPASEF, the precursor distribution in the DDA m/z-ion mobility plane was used to design an acquisition scheme for DIA data collection which included two windows in each 50 ms diaPASEF scan. Data was acquired using sixteen of these 25 Da precursor double window scans (creating 32 windows) which covered the diagonal scan line for doubly and triply charged precursors, with singly charged precursors able to be excluded by their position in the m/z-ion mobility plane. These precursor isolation windows were defined between 400–1200 m/z and 1/k0 of 0.7–1.3 V.s/cm^2.
# The diaPASEF raw file processing and controlling peptide and protein level false discovery rates, assembling proteins from peptides, and protein quantification from peptides was performed using either targeted, cell line specific spectral libraries generated by searching offline fractionated DDApasef data against a Swissprot human or mouse database (January 2021) or using library free analysis in DIA-NN 1.8 ([85]). Library free mode performs an in-silico digestion of a given protein sequence database alongside deep learning-based predictions to extract the DIA precursor data into a collection of MS2 spectra. The search results are then used to generate a spectral library which is then employed for the targeted analysis of the DIA data searched against a Swissprot human or mouse database (January 2021). […]
# full-length CRBN = target: T1, full-length CRBN (Homo sapiens, UniProt Q96SW2); assay: Full-length CRBN MG-PACE circuit luminescence assay; format: cell-based; settings: pomalidomide; degron SD0; vs DMSO
# T1 construct: Full-length CRBN MG-PACE circuit; expressed in transfected cells; host or cells: E. coli S2060
# T1 sequence (Q96SW2 whole entry): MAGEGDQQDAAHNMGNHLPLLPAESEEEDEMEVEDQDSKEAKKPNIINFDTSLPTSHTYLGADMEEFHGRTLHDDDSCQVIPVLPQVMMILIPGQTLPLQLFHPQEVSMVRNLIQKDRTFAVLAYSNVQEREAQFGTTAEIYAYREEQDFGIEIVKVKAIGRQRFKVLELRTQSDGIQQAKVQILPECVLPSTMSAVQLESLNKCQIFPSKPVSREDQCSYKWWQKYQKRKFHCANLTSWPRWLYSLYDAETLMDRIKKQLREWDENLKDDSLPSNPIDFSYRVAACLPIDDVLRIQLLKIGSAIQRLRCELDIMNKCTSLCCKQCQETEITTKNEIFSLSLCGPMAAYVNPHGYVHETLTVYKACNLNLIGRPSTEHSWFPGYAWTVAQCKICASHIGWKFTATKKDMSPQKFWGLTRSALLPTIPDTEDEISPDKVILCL
# From the text: To evolve ZFs that engage PT-179-bound CRBN, we constructed an MG-PACE circuit using the CRBN•IMiD•ZF molecular glue complex. […] We translationally fused CRBN to the DNA-binding protein RR69 and fused SD0 to the RNAP ω-subunit, then measured transcriptional activation by luminescence (Fig. 2A).
# Chemically competent S2060 cells were co-transformed with accessory and complementary plasmids (Table S1).
# Ba/F3 cells = assay: Global quantitative proteomics, Ba/F3; format: cell-based, mouse; settings: 1 µM; for changes to protein expression (in words): pomalidomide 5 hrs, PT-179 5 and 24 hrs
# Procedure: as §1, §2, §3
# The diaPASEF raw file processing and controlling peptide and protein level false discovery rates, assembling proteins from peptides, and protein quantification from peptides was performed using either targeted, cell line specific spectral libraries generated by searching offline fractionated DDApasef data against a Swissprot human or mouse database (January 2021) or using library free analysis in DIA-NN 1.8 ([85]). Library free mode performs an in-silico digestion of a given protein sequence database alongside deep learning-based predictions to extract the DIA precursor data into a collection of MS2 spectra. The search results are then used to generate a spectral library which is then employed for the targeted analysis of the DIA data searched against a Swissprot human or mouse database (January 2021).
# CRBN = CRBN (Homo sapiens, UniProt Q96SW2); assay: In-cell CRBN engagement NanoBRET; settings: for EC50: EC50 CRBN engagement
# CRBN, sequence (Q96SW2 whole entry): as above
# CRBN, sequence (Q16531 whole entry partner): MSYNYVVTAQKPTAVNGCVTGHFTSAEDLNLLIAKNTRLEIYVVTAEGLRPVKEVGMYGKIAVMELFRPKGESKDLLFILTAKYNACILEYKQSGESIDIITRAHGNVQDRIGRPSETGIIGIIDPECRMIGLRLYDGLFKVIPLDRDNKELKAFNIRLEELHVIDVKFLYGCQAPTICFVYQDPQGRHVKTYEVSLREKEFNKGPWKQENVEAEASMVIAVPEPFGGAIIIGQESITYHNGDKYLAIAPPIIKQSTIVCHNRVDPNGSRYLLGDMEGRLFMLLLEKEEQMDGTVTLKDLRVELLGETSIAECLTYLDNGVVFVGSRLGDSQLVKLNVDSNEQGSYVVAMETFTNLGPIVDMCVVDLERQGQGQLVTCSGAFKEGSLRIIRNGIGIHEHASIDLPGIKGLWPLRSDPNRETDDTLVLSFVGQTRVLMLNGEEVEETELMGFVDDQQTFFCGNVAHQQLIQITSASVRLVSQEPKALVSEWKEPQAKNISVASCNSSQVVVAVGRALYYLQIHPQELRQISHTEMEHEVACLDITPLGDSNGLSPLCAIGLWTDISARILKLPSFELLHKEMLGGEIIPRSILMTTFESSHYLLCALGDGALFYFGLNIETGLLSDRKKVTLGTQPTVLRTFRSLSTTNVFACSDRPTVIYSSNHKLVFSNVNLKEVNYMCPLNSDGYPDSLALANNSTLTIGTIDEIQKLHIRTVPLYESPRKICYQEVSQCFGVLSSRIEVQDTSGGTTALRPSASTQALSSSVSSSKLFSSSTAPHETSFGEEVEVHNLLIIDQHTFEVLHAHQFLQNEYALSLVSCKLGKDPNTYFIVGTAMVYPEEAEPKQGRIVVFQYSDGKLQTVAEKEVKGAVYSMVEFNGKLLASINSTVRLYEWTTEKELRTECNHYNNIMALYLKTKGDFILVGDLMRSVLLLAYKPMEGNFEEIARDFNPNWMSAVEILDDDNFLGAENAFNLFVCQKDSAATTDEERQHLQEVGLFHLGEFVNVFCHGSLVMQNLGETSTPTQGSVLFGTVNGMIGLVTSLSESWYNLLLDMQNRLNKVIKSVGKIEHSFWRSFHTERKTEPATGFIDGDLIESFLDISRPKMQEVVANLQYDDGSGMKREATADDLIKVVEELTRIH
# Procedure: U2OS or HEK293T cells were transfected with a combination of NanoLuc-CRBN fusion vector (1 μg/ 100,000 cells) and DDB1 expression vector (4 μg/ 100,000 cells) encoded plasmid (Promega N2910) using Lipofectamine 3000 reagent (Thermo Fischer Scientific, L3000015). […] The transfected cells were washed with PBS, trypsinized, and plated in a 384-well white microplate (Corning, 3765) at 3000 cells in 34 μL Opti-MEM I reduced serum medium per well. […] The plates were incubated for 1 hour at 37 °C, 5% CO2. After incubation plates were brought to room temperature and incubated with 3X complete substrate plus inhibitor solution (20 μL) for 3 minutes at room temperature before measuring BRET signal on an EnVision multilabel plate reader with EnVision Manager 1.13 (PerkinElmer). At each liquid handling step, the plates were shaken on a Thermo Fisher combi instrument followed by centrifugation at 100 xg for 1 minute.
# Lipofectamine 2000 was used in place of lipofectamine 3000 for all transfections, 1 μg of pSD192A was included for generating the SD40-PRKRA overexpression sample, and the assay was performed using 2,500 cells per well.
# NanoBRET values for the in-cell CRBN engagement assay were calculated as follows:
# 2) mean corrected NanoBRET ratio mBU = Mean mBU experimental − Mean mBU no-ligand control.
# EC50 values were calculated in GraphPad Prism (v9.5.1), using an inhibitor vs. response variable slope (four parameter) model.
smiles,measurement,setting,value
"Nc1cccc2c1C(=O)N(C1CCC(=O)NC1=O)C2=O (centres unmarked) [pomalidomide, reference compound]",proteins downregulated (in words),HEK293T cells,induced degradation of ZFP91
same,logFC C3 (P01024),"HEK293T cells; vs DMSO, 5 hr, HEK293T",7.85E-01
same,logFC DTWD1 (Q8N5C7),"HEK293T cells; vs DMSO, 5 hr, HEK293T",-1.29E+00
same,logFC EIF5A (P63241),"HEK293T cells; vs DMSO, 5 hr, HEK293T",1.83E-01
same,logFC PKM (P14618),"HEK293T cells; vs DMSO, 5 hr, HEK293T",1.32E-01
same,logFC ZFP91 (Q96JP5),"HEK293T cells; vs DMSO, 5 hr, HEK293T",-2.05E+00
same,maximal transcriptional activation,full-length CRBN,7 fold
same,changes to protein expression (in words),Ba/F3 cells,do not degrade proteins
same,logFC Bola1 (Q9D8S9),"Ba/F3 cells; vs DMSO, 5 hr, Ba/F3",-2.16E-01
same,logFC Dusp19 (Q8K4T5),"Ba/F3 cells; vs DMSO, 5 hr, Ba/F3",-7.00E-01
same,logFC Inpp5k (Q8C5L6),"Ba/F3 cells; vs DMSO, 5 hr, Ba/F3",-9.47E-01
same,logFC Llph (Q9D945),"Ba/F3 cells; vs DMSO, 5 hr, Ba/F3",2.10E-01
same,logFC Med8 (Q9D7W5),"Ba/F3 cells; vs DMSO, 5 hr, Ba/F3",-3.40E-01
O=C1CCC(N2C(=O)c3ccc(N4CCOCC4)cc3C2=O)C(=O)N1 (centres unmarked) [PT-179],proteins downregulated (in words),HEK293T cells,did not downregulate any detected proteins
same,logFC EIF5A (P63241),"HEK293T cells; vs DMSO, 5 hr, HEK293T",1.52E-01
same,logFC GAL (P22466),"HEK293T cells; vs DMSO, 5 hr, HEK293T",8.26E-01
same,logFC ITPKC (Q96DU7),"HEK293T cells; vs DMSO, 5 hr, HEK293T",6.63E-01
same,logFC RBM23 (Q86U06),"HEK293T cells; vs DMSO, 5 hr, HEK293T",2.25E-01
same,logFC ROR1 (Q01973),"HEK293T cells; vs DMSO, 5 hr, HEK293T",8.84E-01
same,EC50,CRBN; HEK293T cells,2880 nM
same,EC50,"CRBN; HEK293T cells, No SD40 (fig. S16 protocol)",641 nM
same,EC50,"CRBN; HEK293T cells, SD40–PRKRA low expression (single-copy lentiviral integration)",350 nM
same,EC50,"CRBN; HEK293T cells, SD40–PRKRA overexpression (plasmid transfection)",169 nM
same,EC50,CRBN; U2OS cells,979 nM
same,lower apparent potency than pomalidomide,CRBN; HEK293T and U2OS cells,7 fold
same,increase in apparent affinity for CRBN,CRBN; HEK293T cells overexpressing SD40–PRKRA,3.8 fold
same,increase in apparent affinity for CRBN,CRBN; HEK293T cells stably expressing SD40–PRKRA,1.8 fold
same,changes to protein expression (in words),Ba/F3 cells,do not degrade proteins; also recorded: no significant changes to protein expression
same,logFC Bak1 (O08734),"Ba/F3 cells; vs DMSO, 5 hr, Ba/F3",-1.95E-01
same,logFC Hspa1l (P16627),"Ba/F3 cells; vs DMSO, 5 hr, Ba/F3",3.76E-01
same,logFC Polr2l (P62876),"Ba/F3 cells; vs DMSO, 5 hr, Ba/F3",5.32E-01
same,logFC Prkd1 (Q62101),"Ba/F3 cells; vs DMSO, 5 hr, Ba/F3",5.39E-01
same,logFC Rpa2 (Q62193),"Ba/F3 cells; vs DMSO, 5 hr, Ba/F3",1.32E-01
same,logFC Pigo (Q9JJI6),"Ba/F3 cells; vs DMSO, 24 hr, Ba/F3",-3.94E-01
same,logFC Ppib (P24369),"Ba/F3 cells; vs DMSO, 24 hr, Ba/F3",9.71E-02
same,logFC Prpf38a (Q4FK66),"Ba/F3 cells; vs DMSO, 24 hr, Ba/F3",-1.96E-01
same,logFC Ube2v1 (Q9CZY3),"Ba/F3 cells; vs DMSO, 24 hr, Ba/F3",5.05E-01
same,logFC Uchl4 (P58321),"Ba/F3 cells; vs DMSO, 24 hr, Ba/F3",1.38E-01
